Legend:
PLK2 (h) = PLK2 (h) (Homo sapiens, UniProt Q9NYY3); assay: PLK2 human kinase inhibition, SPA; type: biochemical; settings: read-out: PLK2 pIC50 (converted)
Summary of the method: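 33P incorporation into a biotinylated peptide (2 μM) was captured on streptavidin PVT beads and imaged on Leadseeker. Enzyme at 30 μg/ml, ATP 0.1 μM with 2 nM [γ-33P]ATP, Hepes pH 8.0 with MnCl2 and DTT. Incubation was 20 min at room temperature.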

U87-MG = assay: Cellular proliferation assay (Alamar blue), U87-MG; type: cell-based; settings: Homo sapiens, U-87 MG; 10% FCS; 72 hours with compound; Alamar blue 6 h; read-out: U87-MG (cellular proliferation assay, Table 4) (converted)
Summary of the method: (§1)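 Alamar blue conversion, quantified fluorimetrically (544 nm/590 nm), gave viable cell number relative to untreated controls; dye time 4 h for HCT-116, 6 h for U87-MG, 24 h for A2780 and MDA-MB-231. Compound exposure lasted 72 h, after 24 h pre-seeding, with 10% FCS, 37 °C, 5% CO2.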

A2780 = assay: Cellular proliferation assay (Alamar blue), A2780; type: cell-based; settings: Homo sapiens, 10% FCS, 72 hours with compound, Alamar blue 24 h, read-out: A2780 (cellular proliferation assay, Table 4) (converted)
Summary of the method: as §1

PLK3 (h) = PLK3 (h) (Homo sapiens, UniProt Q9H4B4); assay: PLK3 human kinase inhibition, SPA; type: biochemical; settings: read-out: PLK3 pIC50 (converted)
Summary of the method: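 Radiometric scintillation proximity format at pH 8.0 (Hepes, MnCl2, DTT). The 2 μM biotin-peptide substrate is phosphorylated by PLK3 (h) (30 μg/ml) using 0.1 μM ATP traced with 33P, for 20 min at room temperature. EDTA stop; phosphopeptide captured on streptavidin beads and imaged.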

MDA-MB-231 = assay: Cellular proliferation assay (Alamar blue), MDA-MB-231; type: cell-based; settings: Homo sapiens, 10% FCS, 72 hours with compound, Alamar blue 24 h, read-out: MDA/MB231 (cellular proliferation assay, Table 4) (converted)
Summary of the method: as §1

Chain of PLK2 (h) (Q9NYY3 whole entry): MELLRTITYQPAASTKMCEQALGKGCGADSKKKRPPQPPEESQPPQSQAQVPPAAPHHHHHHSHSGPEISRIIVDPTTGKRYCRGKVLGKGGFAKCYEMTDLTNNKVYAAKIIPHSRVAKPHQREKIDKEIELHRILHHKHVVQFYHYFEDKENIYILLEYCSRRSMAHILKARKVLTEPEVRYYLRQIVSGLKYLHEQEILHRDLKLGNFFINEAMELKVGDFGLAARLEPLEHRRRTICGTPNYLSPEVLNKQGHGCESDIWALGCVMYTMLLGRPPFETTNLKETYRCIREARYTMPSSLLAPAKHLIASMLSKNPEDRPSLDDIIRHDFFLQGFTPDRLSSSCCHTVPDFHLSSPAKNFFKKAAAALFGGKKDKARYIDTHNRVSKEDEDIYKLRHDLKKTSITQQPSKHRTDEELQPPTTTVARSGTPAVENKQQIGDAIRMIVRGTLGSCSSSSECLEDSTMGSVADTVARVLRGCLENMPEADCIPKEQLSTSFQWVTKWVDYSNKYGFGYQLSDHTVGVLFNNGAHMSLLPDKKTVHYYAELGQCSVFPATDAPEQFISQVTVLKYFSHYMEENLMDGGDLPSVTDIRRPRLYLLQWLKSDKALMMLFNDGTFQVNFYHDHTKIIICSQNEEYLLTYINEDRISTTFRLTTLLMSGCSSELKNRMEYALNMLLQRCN
Chain of PLK3 (h) (Q9H4B4 whole entry): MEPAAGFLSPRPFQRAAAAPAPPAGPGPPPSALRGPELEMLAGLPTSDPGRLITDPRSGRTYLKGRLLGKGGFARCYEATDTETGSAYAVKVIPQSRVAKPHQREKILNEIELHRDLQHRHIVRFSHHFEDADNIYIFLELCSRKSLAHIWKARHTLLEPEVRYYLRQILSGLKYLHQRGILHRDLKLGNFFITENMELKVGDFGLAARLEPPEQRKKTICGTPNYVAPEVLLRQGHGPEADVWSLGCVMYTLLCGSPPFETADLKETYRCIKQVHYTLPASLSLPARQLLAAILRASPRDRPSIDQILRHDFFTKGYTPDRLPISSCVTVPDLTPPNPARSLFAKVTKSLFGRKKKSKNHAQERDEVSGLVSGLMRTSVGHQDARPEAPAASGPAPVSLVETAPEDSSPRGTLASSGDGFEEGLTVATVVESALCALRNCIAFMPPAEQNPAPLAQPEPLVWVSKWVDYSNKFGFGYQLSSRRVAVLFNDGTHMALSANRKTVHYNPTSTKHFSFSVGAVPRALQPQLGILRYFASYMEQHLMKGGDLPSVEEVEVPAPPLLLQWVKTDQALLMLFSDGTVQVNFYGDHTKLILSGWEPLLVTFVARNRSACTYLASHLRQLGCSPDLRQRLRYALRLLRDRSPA

Row | Compound | IC50 (PLK2 (h)) | IC50 (U87-MG) | IC50 (A2780) | IC50 (PLK3 (h)) | IC50 (MDA-MB-231)
1 | COc1ccc2cc1CN[C@@H](CO)C(=O)N(C)CCCN(C)c1ccc(cn1)-c1ccnc(n1)N2 [Compound 11] | > 10 µM | > 10 µM | > 10 µM | > 10 µM | > 10 µM
2 | O=C1NCc2ccc(cc2)-c2ccnc(n2)Nc2ccc(N3CCOCC3)c(c2)CN2CCC1CC2 [Compound 12] | > 10 µM | 0.955 µM | 1.74 µM | > 10 µM | 9.33 µM
3 | COc1cc2cc(c1OC)CN1CCC[C@H]1C(=O)N(C)CCN(C)c1cc(ccn1)-c1ccnc(n1)N2 [Compound 17] | > 10 µM | > 10 µM | > 10 µM | > 10 µM | > 10 µM
4 | O=C1NCc2cccc(c2)-c2ccnc(n2)Nc2ccc(N3CCOCC3)c(c2)CN[C@H]1Cc1ccccc1 [Compound 18] | > 10 µM | 6.76 µM | 9.33 µM | > 10 µM | > 10 µM
5 | O=C1CN2CCN(CC2)Cc2cc(ccc2N2CCOCC2)Nc2nccc(n2)-c2cccc(c2)CN1 [Compound 20] | > 10 µM | > 10 µM | > 10 µM | > 10 µM | > 3.02 µM
6 | COc1cc2cc(c1OC)CN1CCC[C@H]1C(=O)NCc1cccc(c1)-c1ccnc(n1)N2 [Compound 23] | > 10 µM | > 10 µM | > 10 µM | > 10 µM | > 10 µM
7 | CN1CCN(C(=O)c2ccc3cc2CN2CCC[C@H]2C(=O)NCc2cccc(c2)-c2ccnc(n2)N3)CC1 [Compound 25] | > 10 µM | > 10 µM | 4.47 µM | > 10 µM | > 10 µM
8 | O=C1NCc2cccc(c2)-c2ccnc(n2)Nc2ccc(C(=O)N3CCOCC3)c(c2)CN2CCC[C@@H]12 [Compound 26] | > 10 µM | > 10 µM | 4.17 µM | > 10 µM | 8.13 µM
9 | O=C1NCc2cccc(c2)-c2ccnc(n2)Nc2cc(cc(C(=O)N3CCOCC3)c2)CN2CCC[C@@H]12 [Compound 32] | > 10 µM | > 10 µM | > 10 µM | > 10 µM | > 10 µM
10 | CN1CCN(C(=O)c2cc3cc(c2)Nc2nccc(n2)-c2cccc(c2)CNC(=O)[C@@H]2CCCN2C3)CC1 [Compound 34] | > 10 µM | 8.71 µM | > 10 µM | > 10 µM | > 10 µM
11 | O=C(NC1CCOCC1)c1cc2cc(c1)Nc1nccc(n1)-c1cccc(c1)CNC(=O)[C@@H]1CCCN1C2 [Compound 37] | > 10 µM | > 10 µM | > 10 µM | > 10 µM | > 10 µM
12 | CN1CCC(NC(=O)c2cc3cc(c2)Nc2nccc(n2)-c2cccc(c2)CNC(=O)[C@@H]2CCCN2C3)CC1 [Compound 38] | > 10 µM | 1 µM | 2.69 µM | > 3.02 µM | 6.31 µM
13 | CN(C)CCNC(=O)c1cc2cc(c1)Nc1nccc(n1)-c1cccc(c1)CNC(=O)[C@@H]1CCCN1C2 [Compound 39] | > 10 µM | 1.07 µM | 2.09 µM | > 10 µM | 6.76 µM
14 | O=C1NCc2cc(ccc2N2CCOCC2)Nc2nccc(n2)-c2cccc(c2)CCN2CCC[C@@H]12 [Compound 43] | > 10 µM | > 10 µM | 2.51 µM | > 10 µM | 5.62 µM
15 | CN1CCC(NC(=O)c2ccc3cc2CN2CCC[C@H]2C(=O)NCc2cccc(c2)-c2ccnc(n2)N3)CC1 [Compound 47] | > 10 µM | 7.08 µM | 3.72 µM | > 1 µM | 5.13 µM
16 | O=C1NCc2ccc(cc2)-c2ccnc(n2)Nc2ccc(N3CCOCC3)c(c2)CN2CCC[C@@H]12 [Compound 49] | > 10 µM | 1.74 µM | 4.07 µM | > 10 µM | > 10 µM
17 | COc1cc2cc(c1)Nc1nccc(n1)-c1ccc(cc1)CN(C)CCNC(=O)C1CCN(CC1)C2 [Compound 62] | > 10 µM | 6.92 µM | 5.89 µM | 9.77 µM | 9.12 µM
18 | CC(C)Nc1cc2cc(c1)Nc1nccc(n1)-c1ccc(cc1)CN(C)CCCNC(=O)C1CCN(CC1)C2 [Compound 65] | > 10 µM | 7.24 µM | > 10 µM | > 10 µM | > 10 µM
19 | COc1cc2cc(c1)Nc1nccc(n1)-c1ccc(cc1)CN(C)CCCNC(=O)C1CCN(CC1)C2 [Compound 66] | > 3.02 µM | 2.88 µM | 6.31 µM | > 10 µM | 8.32 µM
20 | COc1cc2cc(c1)Nc1nccc(n1)-c1ccc(OC)c(c1)CN(C)CCNC(=O)C1CCN(CC1)C2 [Compound 67] | > 3.02 µM | > 10 µM | > 10 µM | > 10 µM | > 10 µM
21 | COc1cc2cc(c1)Nc1nccc(n1)-c1ccc(OC)c(c1)CN(C)CCCNC(=O)C1CCN(CC1)C2 [Compound 73] | > 10 µM | 5.13 µM | > 10 µM | > 10 µM | > 10 µM
22 | COc1ccc2cc1CN(C)CCNC(=O)C1CCN(CC1)Cc1cc(NCCc3ccccc3)cc(c1)Nc1nccc-2n1 [Compound 74] | > 10 µM | 3.98 µM | 3.02 µM | > 10 µM | 5.89 µM
23 | O=C1NCCOc2cccc(c2)-c2ccnc(n2)Nc2ccc(N3CCOCC3)c(c2)CN2CCC1CC2 [Compound 94] | > 10 µM | > 10 µM | > 10 µM | > 10 µM | > 10 µM
24 | O=C1NCc2cccc(c2)-c2ccnc(n2)Nc2ccc(N3CCOCC3)c(c2)CN2CCC1CC2 [Compound 95] | > 10 µM | > 10 µM | > 10 µM | > 10 µM | > 10 µM
25 | C[C@@H]1NCCc2cccc(c2)-c2ccnc(n2)Nc2ccc(N3CCOCC3)c(c2)CNC1=O [Compound 100] | > 10 µM | 0.603 µM | 3.02 µM | > 10 µM | 3.47 µM

More lines, now with the values ahead:

Row | IC50 (PLK2 (h)) | IC50 (U87-MG) | IC50 (A2780) | IC50 (PLK3 (h)) | IC50 (MDA-MB-231) | Compound
26 | > 10 µM | 7.94 µM | 7.08 µM | > 10 µM | > 10 µM | O=C1NCc2cc(ccc2N2CCOCC2)Nc2nccc(n2)-c2cccc(c2)CN2CCC[C@@H]12 [Compound 15]
27 | > 10 µM | 5.37 µM | 0.661 µM | > 10 µM | 3.8 µM | O=C1NCc2cccc(c2)-c2ccnc(n2)Nc2ccc(N3CCOCC3)c(c2)CN2C[C@@H](O)C[C@@H]12 [Compound 27]
28 | > 10 µM | 1.45 µM | 3.39 µM | > 10 µM | > 10 µM | CN(C)C(=O)c1cc2cc(c1)Nc1nccc(n1)-c1cccc(c1)CNC(=O)[C@@H]1CCCN1C2 [Compound 35]
29 | > 10 µM | 1.91 µM | 6.03 µM | > 10 µM | > 10 µM | COCCNC(=O)c1cc2cc(c1)Nc1nccc(n1)-c1cccc(c1)CNC(=O)[C@@H]1CCCN1C2 [Compound 44]
30 | > 10 µM | 0.912 µM | 1.66 µM | > 10 µM | 6.76 µM | O=C1NCc2cccc(c2)-c2ccnc(n2)Nc2cccc(c2)CN2C[C@@H](O)C[C@@H]12 [Compound 45]
31 | > 10 µM | > 10 µM | > 10 µM | > 10 µM | > 10 µM | O=C1NCc2cccc(c2)-c2ccnc(n2)Nc2cc(ccc2Cl)CN2CCC[C@@H]12 [Compound 51]
32 | > 10 µM | > 10 µM | > 10 µM | > 10 µM | > 10 µM | O=C1NCc2cccc(c2)-c2ccnc(n2)Nc2cc(ccc2Cl)CN2C[C@H](O)C[C@@H]12 [Compound 52]
33 | > 10 µM | > 10 µM | > 10 µM | > 10 µM | > 10 µM | O=C1NCc2cccc(c2)-c2ccnc(n2)Nc2ccc(cc2)CN2CCC[C@@H]12 [Compound 54]
34 | > 10 µM | > 10 µM | > 10 µM | > 10 µM | > 10 µM | O=C1NCc2cccc(c2)-c2ccnc(n2)Nc2ccc(cc2)CN2C[C@H](O)C[C@@H]12 [Compound 55]
35 | > 10 µM | > 10 µM | > 10 µM | > 10 µM | > 10 µM | O=C1NCc2ccc(cc2)-c2ccnc(n2)Nc2ccc(N3CCOCC3)c(c2)CN2C[C@H](O)C[C@@H]12 [Compound 56]
36 | > 10 µM | > 10 µM | > 10 µM | > 1 µM | > 10 µM | O=C1NCc2cccc(c2)-c2ccnc(n2)Nc2ccccc2CN2CCC[C@@H]12 [Compound 57]
37 | > 10 µM | > 10 µM | > 10 µM | > 10 µM | > 10 µM | CC(C)(C)O[C@@H]1C[C@H]2C(=O)NCc3cccc(c3)-c3ccnc(n3)Nc3ccccc3CN2C1 [Compound 58]

Source: US8609836B2, “4-aryl-2-anilino-pyrimidines” (Janssen Pharmaceutica NV, priority 2008, dated 2013)
